The record followed here is patent US20260248881A1, “PHARMACEUTICAL COMPOSITION COMPRISING FOXM1 INHIBITOR AND IMMUNE CHECKPOINT INHIBITOR FOR PREVENTING OR TREATING CANCER” (National Cancer Center, priority 2022, published 2026).

The target of one series is T1, FOXM1 (Homo sapiens, UniProt Q08050).
T1 construct: host or cells: H1299 and PC9 cells
T1 sequence (Q08050 1-763): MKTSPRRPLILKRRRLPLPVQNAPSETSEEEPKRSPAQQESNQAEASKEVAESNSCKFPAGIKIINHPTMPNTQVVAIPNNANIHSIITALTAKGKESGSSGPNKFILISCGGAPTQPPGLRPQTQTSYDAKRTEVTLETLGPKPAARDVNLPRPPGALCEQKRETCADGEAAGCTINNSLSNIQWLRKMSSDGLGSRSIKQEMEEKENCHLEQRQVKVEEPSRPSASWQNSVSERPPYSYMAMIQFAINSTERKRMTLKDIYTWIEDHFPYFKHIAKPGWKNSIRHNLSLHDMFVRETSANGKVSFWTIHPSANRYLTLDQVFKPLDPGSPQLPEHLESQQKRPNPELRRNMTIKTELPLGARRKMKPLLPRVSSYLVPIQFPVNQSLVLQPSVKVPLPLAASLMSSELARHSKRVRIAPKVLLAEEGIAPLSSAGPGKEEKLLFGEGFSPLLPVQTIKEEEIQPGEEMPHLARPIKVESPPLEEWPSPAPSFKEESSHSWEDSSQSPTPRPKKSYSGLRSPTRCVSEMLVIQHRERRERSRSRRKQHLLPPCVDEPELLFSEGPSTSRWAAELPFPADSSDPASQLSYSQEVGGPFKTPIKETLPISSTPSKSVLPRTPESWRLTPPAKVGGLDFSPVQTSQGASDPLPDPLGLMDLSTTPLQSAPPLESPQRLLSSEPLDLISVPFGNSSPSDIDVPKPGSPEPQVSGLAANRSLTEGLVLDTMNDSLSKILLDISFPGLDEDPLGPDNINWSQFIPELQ
As to the kind of experiment: FOXM1 inhibitors tested in H1299 and PC9 cells (FOXM1 levels). In kind it is cell-based. The protocol: H1299 and PC9 cells purchased from ATCC (Manassas, VA, USA) were cultured in RPMI-1640 medium (#10-040-CV; Corning, New York, NY, USA) supplemented with 10% […] (#35-010-CV; Corning) and penicillin-streptomycin antibiotic cocktail (#15240062; Thermo Fisher Scientific, Waltham, MA, USA) at 37° C. and 5% CO2.
Total RNA was extracted and purified using the RNeasy kit (#74004; QIAGEN) according to the manufacturer's protocol. Reverse transcription of mRNA was performed using a PrimeScript 1st Strand CDNA Synthesis Kit (#6110A; TaKaRa Bio, Otsu, Japan). Quantitative PCR was performed using primers specific for the CD274 and FOXM1 genes designed using Primer 3 software. A β-actin gene was used as an internal control group to normalize target gene expression.

Series [1] deals with c-MYC, cyclin B1, cyclin E1, and cyclin D1. Description: Western blot of c-MYC and cyclins in H1299 and PC9 cells. The conditions noted are these: both cell lines. Format: cell-based, human. The protocol: Cells were lysed in RIPA buffer supplemented with complete mini protease inhibitor cocktail (#04693124001; Roche, Basel, Switzerland) and kept on ice for 30 minutes. Equal amounts of protein were evenly loaded and analyzed by sodium dodecyl sulfate-polyacrylamide gel electrophoresis (SDS-PAGE), and transferred to polyvinylidene difluoride (PVDF) membranes (#IPVH 00010; Millipore, Billerica, MA, USA) at 100 V for 1 hour. Primary antibodies (Santa Cruz Biotechnology, Texas, USA) specific for FOXM1 (#sc-271746), cyclin E1 (#sc-481), α-tubulin (#sc-8035), and β-actin (#sc-47778); PD-L1 (#13684S), cyclin D1 (#2978S), cyclin B1 (#4138S), c-MYC (#5605S), and poly(ADP-ribose) polymerase (PARP, #9542S; Cell Signaling Technology, Beverly, MA, USA) were used to probe proteins of interest. A horseradish-peroxidase-conjugated secondary antibodies specific to the primary antibody was used to detect proteins using pico-enhanced chemiluminescence substrate (#34577; Thermo Fisher Scientific).
In general terms: Immunoblotting shows a protein as a band on a membrane.

The subject of another series is human H1299 or PC9 cells. Description: Xenograft tumor model. In kind it is in vivo, BALB/c nude mice. The protocol: Mice (n=6) were injected intraperitoneally with TST dissolved in DMSO at a dose of 17 mg/kg every 2 days before euthanasia and sacrifice. Tumor volume and body weight of the mice were measured every other day. […] Two days after the final TST injection, all mice were sacrificed, and tumor tissues were collected for immunohistochemical (IHC) staining of FOXM1 and PD-L1. The tissues were fixed in 10% neutralized formaldehyde and embedded in paraffin blocks. Tissue microarray (TMA) slides were made with a 4 mm diameter per sample and sectioned at 4 μm thickness to perform IHC with anti-FOXM1 (#20459S) or anti-PD-L1 (#13684S) (Cell Signaling Technology) antibodies. Autostainer Link48 (Dako, Agilent Technologies, Santa Clara, CA, USA) was used for analysis.
IHC staining was performed using anti-rabbit-HRP antibodies (K4003, EnVision+ HRP Labelled Polymer Anti-Rabbit, Dako, Agilent Technologies, Carpinteria, CA, USA) and 3,3′-diaminobenzidine (DAB) (K3468, DAB+ Chromogen, Dako, Agilent Technologies, Santa Clara, CA, USA) as substrates, and the sections were counterstained with hematoxylin (K8008, EnVision FLEX Hematoxylin, Dako, Agilent Technologies Singapore, Singapore). To analyze the in vivo toxicity of the tested drugs, four xenograft mice from each group were used for serum biochemical analysis (Table 2). On day 9, serum samples were collected from the mice in the control and TST-treated groups. In addition, the vital organs (liver, spleen, and kidney) were collected form mice, sectioned, and stained with H&E to monitor histopathological changes.
To investigate the effect of TST, which is a FOXM1 inhibitor, on tumor growth and PD-L1 expression in vivo, human H1299 or PC9 cells (5×10^6) were subcutaneously implanted into BALB/c nude mice (n=6 per group). When the average size of the xenografted tumor masses reached approximately 170 mm^3, TST was injected intraperitoneally into the mice at a dose of 17 mg/kg four times every 2 days (FIG. 7a). […] 2 days after the final TST treatment, the mice were sacrificed. […]

As to thiostrepton [TST], the FOXM1 levels entry at FOXM1 is “the most effective inhibitor, significantly reducing FOXM1 levels”. The “protein levels of c-MYC, cyclin B1, and cyclin D1” value in series [1] is reported as “significantly decreased”. Besides, the “FOXM1 and PD-L1 expression in tumors (immunohistochemical analysis)” value in the series on human H1299 or PC9 cells (2 days after final TST treatment, vs control mice) is recorded as “significantly downregulated”. Besides, in the series on human H1299 or PC9 cells (TST 17 mg/kg intraperitoneally four times every 2 days, vs control group), the tumor volume entry is given as “significant decrease in tumor volume”. Moreover, the body weight entry in the series with human H1299 or PC9 cells (after 9 days, TST vs control) is on record as “no difference in body weight”.
